Results reported in patent publication US12268739B2, “Use of toll-like receptor 2 (TLR-2) agonist for modulating human immune response” (Children's Medical Center Corporation, priority 2018, dated 2025).

Tests used:
[1] = test system: NF-κB reporter THP1 cells; test: NF-kB-induced luminescence HTS in THP1-Lucia cells (384-well); assay type: cell-based, human; conditions: ranked at 3.3 μM; ~200,000 compounds tested
From the text: HTS Overview: To identify immunomodulators/adjuvants that robustly activate human immune cells, ˜200,000 small molecules were screening in a THP1 cell-based assay. The chemical libraries screened included known bioactive and commercial libraries from various sources including commercial libraries such as ChemDiv, ChemBridge, and Asinex. All libraries were owned and provided by the Institute of Chemistry and Cell Biology (ICCB)—Longwood (Harvard Medical School). The project primary screen incorporated two distinct arms: a) a luciferase-based screen which corresponds to the relative activation of the NF-κB reporter; and b) a fluorescence-based screen, corresponding to the phenotypic adherence, a distinct marker of cell activation, of the human monocytic THP-1 cell lines. Described herein are small molecules identified in the screen that induce NF-kB activity based on a luciferase-based THP-1 cell screen.
(§1) THP-1 Cell Line and Culture Conditions. The THP1-Lucia™ cell line was obtained from Invivogen (San Diego, CA). THP1-Lucia cells, which are human monocytic cells derived from the blood of a child with leukemia, contain an NF-kB-inducible Luc reporter construct. This allows NF-kB activation to be measured by quantifying the luminescence from the secreted luciferase enzyme. THP1-Lucia cells were cultured in RPMI 1640 supplemented with 10% non-heat inactivated fetal bovine serum (FBS), 10 mM HEPES, 1.0 mM sodium pyruvate, 50 ug/ml Pen-Strep, and 100 ug/mL Normocin™. Once cultured, the cells were stored in a 37° C. incubator with 5% CO2 and a humidified atmosphere. Cells were passaged every 2-3 days and not allowed to exceed a concentration of 2.0×10^6 cells/ml media.
NF-kB-induced Luminescence Assay. THP1-Lucia cells between passage 15 and 18 and suspended in culture medium were dispensed into 384-well black clear-bottom plates (Corning 3712) at 30,000 cells/30 μl/well using a Combi liquid dispenser. To allow comparison to a benchmark small molecule with known immune stimulating activity, cells at the same concentration were stimulated with 50 μM R848, a TLR7/8 agonist, in 0.3% DMSO and added to every other well of column 24, which was left empty of cells, by multichannel pipette at the same volume. Five μl of 700 nM Phorbol myristate acetate (PMA) in THP1 culture media and 2.3% DMSO, a known peripheral blood cell mitogen, was added to every other well of column 23 by multichannel pipette (final concentration in well: 100 nM in 0.3% DMSO). Five μl of THP1 culture media with 2.3% DMSO was added to the remaining wells of column 23 by multichannel pipette (final concentration 0.3% DMSO). One hundred nl aliquots of library compounds diluted in 100% DMSO were transferred from their original 384-well plates to the assay plates using a Seiko pin transfer machine. Each library plate was pinned in duplicate, yielding two assay plates with identical conditions for comparison. Plates were then incubated for 24 hours at 37 C with 5% CO2 in humid conditions. Following incubation, 10 μL of supernatant was removed from each well and transferred to a white plate (Corning 3570) using a Vprep liquid transfer machine. 10 μL of recombinant Lucia protein (Invivogen) diluted 1:2000 in THP1 culture media was added to empty well 24P. Using a Combi liquid dispenser, 50 μL/well of Quanti-Luc substrate (Invivogen) diluted 1:3 in sterile water was added to the assay plate. Immediately after adding the substrate, the luminescence was read using a PerkinElmer Envision plate reader.

human adult PBMCs = test: Cytokine production by stimulated human adult PBMCs (ELISA / multiplex); assay type: cell-based; conditions: human adult PBMCs, 24 hours, compounds at 100 µM (FIG. 7), ELISA, median
Description: ELISAs and Multiplex-Analyte Assays. Supernatants derived from human PBMCs stimulations were assayed by ELISA for TNF and IL-6 (ThermoFisher Scientific; Waltham, MA, USA). Cytokine and chemokine expression profiles (e.g., IFNγ, IL-9, IL-10, IL-12 (p70), IL-13, IL-1β, IL-23, IL-27, IL-28A, IL-33, IL-6, MIP-3α/CCL20, and TNF) in cell culture supernatants were measured using a customized Milliplex® Human Th17 Magnetic Bead Panel according to the manufacturer's instructions (Millipore, Chicago, IL, USA). Assays were read and analyzed on the Luminex® 100/200TM System and xPOTENT® software (Luminex, Austin, TX). A minimum threshold was set at the minimum detectable concentration for each individual assay, defined as three standard deviations above the mean background.
PBMCs were isolated from blood using a Ficoll density gradient. PBMCs either used fresh or were stored at 5×10^7 cells per vial in 1 mL RPMI containing 20% autologous plasma and 10% DMSO at −80° C. until use. […] PBMCs isolated from human adult donors or THP1-NF-κB cells were resuspended at a concentration of 10^5 cells/200 μl of RPMI supplemented with 10% of platelet-poor plasma or THP1 culture medium, respectively. […] After 24 hours of incubation (37° C., 5% CO2), plates were spun down (500×g, room temperature, 5 minutes) and supernatants were harvested for further analysis.

THP1-NF-κB cells = test: THP1-NF-κB cell stimulation for 24 hours, secreted luciferase luminescence; assay type: cell-based, human; conditions: NF-κB-dependent luminescence, 24 hours; for THP1 cells (relative luminescence units, N = 4) Comp at 25 uM: compound at 25 uM; for THP1 cells (relative luminescence units, N = 4) Comp at 100 uM: compound at 100 uM
Description: as §1
PBMCs were isolated from blood using a Ficoll density gradient. PBMCs either used fresh or were stored at 5×10^7 cells per vial in 1 mL RPMI containing 20% autologous plasma and 10% DMSO at −80° C. until use. Stimulation plates were prepared by transferring 0.66 μl of DMSO-dissolved compounds (30 or 7.5 mM) to each well of a round bottom 96-well plate. PBMCs isolated from human adult donors or THP1-NF-κB cells were resuspended at a concentration of 10^5 cells/200 μl of RPMI supplemented with 10% of platelet-poor plasma or THP1 culture medium, respectively. 200 μl of the cell suspension were transferred to each well resulting in a final compound concentration of 100 or 25 μM. After 24 hours of incubation (37° C., 5% CO2), plates were spun down (500×g, room temperature, 5 minutes) and supernatants were harvested for further analysis.

| SMILES | Efficacy in activating NF-κB in THP1 cells (screening hits) [1] | Adult PBMCs (median ng/ml) IL-6 (N = 7) (human adult PBMCs) | Adult PBMCs (median ng/ml) TNFa (N = 13) (human adult PBMCs) | THP1 cells (relative luminescence units, N = 4) Comp at 25 uM (THP1-NF-κB cells) | THP1 cells (relative luminescence units, N = 4) Comp at 100 uM (THP1-NF-κB cells) |
| --- | --- | --- | --- | --- | --- |
| COC(=O)c1c(NC(=O)CN2CCN(C(=O)c3ccco3)CC2)sc2c1CCC2 [Compound 003] | most effective |  |  |  |  |
| CNc1ccc([N+](=O)[O-])cc1-n1cnc(-c2ccc([N+](=O)[O-])cc2)c1 [TM-A, reference compound] |  | 2.154 ng/mL | 0.092 ng/mL | 8777 relative luminescence units | 13092 relative luminescence units |
| COc1ccc(CNC(=O)CN(c2ccc(Br)cc2)S(=O)(=O)c2ccccc2)cc1 [TM-F, reference compound] |  | 0.008 ng/mL | 0.008 ng/mL | 348.5 relative luminescence units | 2012 relative luminescence units |
| CCOC(=O)c1c(NC(=O)CN2CCC3(CC2)OCCO3)sc(C)c1C [Compound 005] | most effective |  |  |  |  |
| CCOC(=O)c1c(NC(=S)Nc2ccc(OC)cc2)sc2c1CCCC2 [TM-C, reference compound] |  | 0.5145 ng/mL | 0.01575 ng/mL | 3440 relative luminescence units | 4031 relative luminescence units |
| CNC(=O)c1c(NC(=O)c2ccc(S(=O)(=O)N3CCCCC3)cc2)sc(C)c1C [Compound 80.14] |  | 0.008 ng/mL | 0.008 ng/mL | 517 relative luminescence units | 1475 relative luminescence units |
| CNC(=O)c1c(NC(=O)c2ccc(Cl)cc2)sc2c1CCC2 [Compound 80.5] |  | 0.008 ng/mL | 0.008 ng/mL | 436.5 relative luminescence units | 777 relative luminescence units |
| CNC(=O)c1c(NC(=O)c2ccc(S(=O)(=O)N(C)C)cc2)sc2c1CCCCC2 [Compound 80.13] |  | 0.008 ng/mL | 0.008 ng/mL | 348 relative luminescence units | 11361 relative luminescence units |
| CCN(CC)S(=O)(=O)c1ccc(C(=O)Nc2sc3c(c2C(=O)NC)CCC3)cc1 [Compound 80.6] |  |  |  | 2505 relative luminescence units | 2816 relative luminescence units |
| CNC(=O)c1c(NC(=O)c2ccc(OC)cc2)sc2c1CCC2 [Compound 80.8] |  | 0.008 ng/mL | 0.008 ng/mL | 258.5 relative luminescence units | 2552 relative luminescence units |
| CNC(=O)c1c(NC(=O)c2ccc(C#N)cc2)sc2c1CCC2 [Compound 80.11] |  | 0.0225 ng/mL | 0.008 ng/mL | 1108 relative luminescence units | 2420 relative luminescence units |
| COC(=O)c1c(NC(=O)Nc2ccccc2)sc2c1CCCC2 [TM-B, reference compound] |  | 0.057 ng/mL | 0.008 ng/mL | 1204 relative luminescence units | 681 relative luminescence units |
| Cc1ccc(N(CC(=O)NCc2ccc(Cl)cc2)S(C)(=O)=O)cc1 [TM-E, reference compound] |  | 0.008 ng/mL | 0.008 ng/mL | 320 relative luminescence units | 428.5 relative luminescence units |
